Results: patent US20220002314A1 (priority 2018, published 2022)
Where two headings read alike, the source gives them in different places.

Legend:
[1] = target: Human α2δ-1 subunit of Cav2.2 calcium channel (Homo sapiens, UniProt P54289); test: biochemical; assay type: binding
Human μ-opioid receptor = Human μ-opioid receptor (Homo sapiens, UniProt P35372); test: biochemical; assay type: binding
Sequence of Human μ-opioid receptor (P35372 whole entry): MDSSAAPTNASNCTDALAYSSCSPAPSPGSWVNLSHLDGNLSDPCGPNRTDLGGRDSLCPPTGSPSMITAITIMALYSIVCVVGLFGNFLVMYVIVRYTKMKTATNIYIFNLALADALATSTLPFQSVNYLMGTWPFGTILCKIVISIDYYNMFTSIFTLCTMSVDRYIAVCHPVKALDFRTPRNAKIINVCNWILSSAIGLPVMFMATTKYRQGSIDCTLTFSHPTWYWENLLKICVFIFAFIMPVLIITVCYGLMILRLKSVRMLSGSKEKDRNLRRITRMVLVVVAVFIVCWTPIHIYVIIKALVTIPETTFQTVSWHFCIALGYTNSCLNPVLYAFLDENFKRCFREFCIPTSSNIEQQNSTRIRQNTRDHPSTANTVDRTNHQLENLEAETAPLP

Sequence of Human α2δ-1 subunit of Cav2.2 calcium channel (P54289 25-1103): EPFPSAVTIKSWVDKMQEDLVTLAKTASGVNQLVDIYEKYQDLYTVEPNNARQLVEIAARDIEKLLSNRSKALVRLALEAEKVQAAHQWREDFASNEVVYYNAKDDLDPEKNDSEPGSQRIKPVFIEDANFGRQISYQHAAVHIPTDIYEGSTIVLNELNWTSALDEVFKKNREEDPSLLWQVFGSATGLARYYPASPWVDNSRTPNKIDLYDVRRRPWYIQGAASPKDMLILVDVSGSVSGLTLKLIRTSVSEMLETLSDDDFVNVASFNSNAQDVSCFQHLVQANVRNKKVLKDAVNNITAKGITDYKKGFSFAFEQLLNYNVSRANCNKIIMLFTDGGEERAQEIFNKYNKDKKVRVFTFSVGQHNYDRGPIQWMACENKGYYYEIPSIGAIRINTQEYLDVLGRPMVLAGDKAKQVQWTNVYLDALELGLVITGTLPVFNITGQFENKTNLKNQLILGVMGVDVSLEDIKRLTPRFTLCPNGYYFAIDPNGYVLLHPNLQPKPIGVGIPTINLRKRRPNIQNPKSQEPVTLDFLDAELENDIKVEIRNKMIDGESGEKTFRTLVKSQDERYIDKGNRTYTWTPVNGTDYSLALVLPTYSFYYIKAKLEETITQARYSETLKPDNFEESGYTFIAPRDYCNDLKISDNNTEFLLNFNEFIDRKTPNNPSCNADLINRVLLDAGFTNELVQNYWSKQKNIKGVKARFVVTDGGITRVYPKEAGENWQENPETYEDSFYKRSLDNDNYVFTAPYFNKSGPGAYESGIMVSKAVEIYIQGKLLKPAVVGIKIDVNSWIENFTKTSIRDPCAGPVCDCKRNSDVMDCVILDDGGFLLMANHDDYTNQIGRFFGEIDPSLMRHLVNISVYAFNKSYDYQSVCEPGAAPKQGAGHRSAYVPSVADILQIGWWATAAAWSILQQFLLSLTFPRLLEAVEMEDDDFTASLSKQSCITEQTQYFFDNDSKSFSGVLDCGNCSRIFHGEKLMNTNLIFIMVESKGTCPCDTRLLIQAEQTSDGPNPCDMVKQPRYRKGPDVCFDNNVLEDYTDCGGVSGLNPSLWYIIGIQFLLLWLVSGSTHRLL

Row | Compound | Ki [1] [nM] | Ki (Human μ-opioid receptor) [nM] | Ki ([1]; read-out: α2δ-1 binding) [nM] | Ki (Human μ-opioid receptor; read-out: μ-binding) [nM]
1 | CCCC(c1nc2cccc(O)c2c(=O)n1CC)N1C[C@@H](C)N[C@@H](C)C1 (stereo partly drawn) [Example 15, 2-(1-((3S,5R)-3,5-dimethylpiperazin-1-yl)butyl)-3-ethyl-5-hydroxyquinazolin-4(3H)-one] | < 500 | > 500 |  | 
2 | CCC[C@H](c1nc2ccc(Br)cc2c(=O)n1CC)N1C[C@@H](C)N[C@@H](C)C1 [Example 29, 6-bromo-2-((R)-1-((3S,5R)-3,5-dimethylpiperazin-1-yl)butyl)-3-ethylquinazolin-4(3H)-one] | < 500 | > 500 |  | 
3 | CCC[C@@H](c1nc2ccc(NCC[C@]3(c4ccccn4)CCOC4(CCCC4)C3)cc2c(=O)n1CC)N1C[C@@H](C)N[C@@H](C)C1 [Example 161, 2-((S)-1-((3S,5R)-3,5-dimethylpiperazin-1-yl)butyl)-3-ethyl-6-((2-((S)-9-(pyridin-2-yl)-6-oxaspiro[4.5]decan-9-yl)ethyl)amino)quinazolin-4(3H)-one] | > 5000 | > 500 |  | 
4 | CCC[C@H](c1nc2ccccc2c(=O)n1C)N1C[C@@H](C)N[C@@H](C)C1 [Example 32, 2-((R)-1-((3S,5R)-3,5-dimethylpiperazin-1-yl)butyl)-3-methylquinazolin-4(3H)-one] | < 500 | > 500 |  | 
5 | CCCC(C1=CCNCC1)c1nc2ccc(Br)cc2c(=O)n1CC (stereo not shown) [Example 188, 6-bromo-3-ethyl-2-(1-(1,2,3,6-tetrahydropyridin-4-yl)butyl)quinazolin-4(3H)-one] |  |  | 500 to 5000 | > 500
6 | CCC[C@@H](c1nc2ccc(Br)cc2c(=O)n1CC)N1CCN[C@H](C)C1 [Example 100, 6-bromo-3-ethyl-2-((S)-1-((R)-3-methylpiperazin-1-yl)butyl)quinazolin-4(3H)-one] | > 5000 | > 500 |  | 
7 | CCC[C@@H](c1nc2ccc(Br)cc2c(=O)n1CC)[C@@H]1CCNCC1(F)F [Example 197, 6-bromo-2-((R)-1-((S)-3,3-difluoropiperidin-4-yl)butyl)-3-ethylquinazolin-4(3H)-one] | 500 to 5000 | > 500 |  | 
8 | CCC[C@@H](c1nc2ccccc2c(=O)n1CC)N1CCN[C@@H](C)C1 [Example 44, 3-ethyl-2-((S)-1-((S)-3-methylpiperazin-1-yl)butyl)quinazolin-4(3H)-one] | > 5000 | > 500 |  | 
9 | CCCC(c1nc2ccc(C#N)cc2c(=O)n1CC)N1C[C@@H](C)N[C@@H](C)C1 (stereo partly drawn) [Example 177, 2-(1-((3S,5R)-3,5-dimethylpiperazin-1-yl)butyl)-3-ethyl-4-oxo-3,4-dihydroquinazoline-6-carbonitrile] | < 500 | > 500 |  | 
10 | CCC[C@H](c1nc2cc(O[C@H](CNC)c3ccccc3)ccc2c(=O)n1C)N1C[C@@H](C)N[C@@H](C)C1 [Example 170, 2-((R)-1-((3S,5R)-3,5-dimethylpiperazin-1-yl)butyl)-3-methyl-7-((S)-2-(methylamino)-1-phenylethoxy)quinazolin-4(3H)-one] | < 500 | > 500 |  | 
11 | CCC[C@H](c1nc2nc(C(F)(F)F)ccc2c(=O)n1CC)N1CCN[C@@H](C)C1 [Example 78, 3-ethyl-2-((R)-1-((S)-3-methylpiperazin-1-yl)butyl)-7-(trifluoromethyl)pyrido[2,3-d]pyrimidin-4(3H)-one] | < 500 | > 500 |  | 
12 | CCC[C@@H](c1nc2c(F)cc(OC)cc2c(=O)n1CC)N1CCN[C@@H](C)C1 [Example 45, 3-Ethyl-8-fluoro-6-methoxy-2-((S)-1-((S)-3-methylpiperazin-1-yl)butyl)quinazolin-4(3H)-one] | > 5000 | > 500 |  | 
13 | CCCC(c1nc2ccc(Br)cc2c(=O)n1CC)N1C[C@@H](C)N[C@@H](C)C1 (stereo partly drawn) [Example 1, 6-Bromo-2-(1-((3S,5R)-3,5-dimethylpiperazin-1-yl)butyl)-3-ethylquinazolin-4(3H)-one] | < 500 | > 500 |  | 
14 | CCCC(c1nc2cc(C)c(Br)cc2c(=O)n1CC)N1CCNCC1 (stereo not shown) [Example 85, 6-bromo-3-ethyl-7-methyl-2-(1-(piperazin-1-yl)butyl)quinazolin-4(3H)-one] | < 500 | > 500 |  | 
15 | CCC[C@H](c1nc2ccc(Br)cc2c(=O)n1CC)N1CCN[C@@H](COC)C1 [Example 219, 6-bromo-3-ethyl-2-((R)-1-((R)-3-(methoxymethyl)piperazin-1-yl)butyl)quinazolin-4(3H)-one] | < 500 | > 500 |  | 
16 | CCC[C@H](c1nc2cc(F)c(OC)cc2c(=O)n1CC)N1CCN[C@H](C)C1 [Example 210, 3-ethyl-7-fluoro-6-methoxy-2-((R)-1-((R)-3-methylpiperazin-1-yl)butyl)quinazolin-4(3H)-one] | < 500 | > 500 |  | 
17 | CCCC(c1nc2c(F)cc(Br)cc2c(=O)n1CC)N1CCNCC1 (stereo not shown) [Example 87, 6-bromo-3-ethyl-8-fluoro-2-(1-(piperazin-1-yl)butyl)quinazolin-4(3H)-one] | 500 to 5000 | 100 to 500 |  | 
18 | CCCC(c1nc2cccc(Br)c2c(=O)n1CC)N1C[C@@H](C)N[C@@H](C)C1 (stereo partly drawn) [Example 14, 5-bromo-2-(1-((3S,5R)-3,5-dimethylpiperazin-1-yl)butyl)-3-ethylquinazolin-4(3H)-one] | < 500 | > 500 |  | 
19 | CCCC(c1nc2cc(C)ccc2c(=O)n1CC)N1C[C@@H](C)N[C@@H](C)C1 (stereo partly drawn) [Example 4, 2-(1-((3S,5R)-3,5-dimethylpiperazin-1-yl)butyl)-3-ethyl-7-methylquinazolin-4(3H)-one] | < 500 | > 500 |  | 
20 | CCC[C@@H](c1nc2cc(O[C@@H](CCNC)c3ccccc3)ccc2c(=O)n1C)N1C[C@@H](C)N[C@@H](C)C1 [Example 166, 2-((S)-1-((3S,5R)-3,5-dimethylpiperazin-1-yl)butyl)-3-methyl-7-((S)-3-(methylamino)-1-phenylpropoxy)quinazolin-4(3H)-one] | < 500 | > 500 |  | 
21 | CCC[C@H](c1nc2ncc(Br)cc2c(=O)n1CCC)N1CCN[C@@H](C)C1 [Example 72, 6-Bromo-2-((R)-1-((S)-3-methylpiperazin-1-yl)butyl)-3-propylpyrido[2,3-d]pyrimidin-4(3H)-one] | < 500 | > 500 |  | 
22 | CCC[C@H](c1nc2cc(F)c(OC)cc2c(=O)n1CC)N1CCN[C@@H](C)C1 [Example 213, 3-ethyl-7-fluoro-6-methoxy-2-((R)-1-((S)-3-methylpiperazin-1-yl)butyl)quinazolin-4(3H)-one] | < 500 | > 500 |  | 
23 | CCCC(c1nc2cc(CO)ccc2c(=O)n1C)N1C[C@@H](C)N[C@@H](C)C1 (stereo partly drawn) [Example 172, 2-(1-((3S,5R)-3,5-Dimethylpiperazin-1-yl)butyl)-7-(hydroxymethyl)-3-methylquinazolin-4(3H)-one] | < 500 | > 500 |  | 
24 | CCCC(c1nc2ncc(Br)cc2c(=O)n1CC)N1C[C@@H](C)N[C@@H](C)C1 (stereo partly drawn) [Example 28, 6-bromo-2-(1-((3S,5R)-3,5-dimethylpiperazin-1-yl)butyl)-3-ethylpyrido[2,3-d]pyrimidin-4(3H)-one] | < 500 | > 500 |  | 
25 | CCC[C@@H](c1nc2ccccc2c(=O)n1CC)N1C[C@@H](C)N[C@@H](C)C1 [Example 33, 2-((S)-1-((3S,5R)-3,5-Dimethylpiperazin-1-yl)butyl)-3-ethylquinazolin-4(3H)-one] |  |  | 500 to 5000 | 
